Paper PMC10916382, “Repurposing screen identifies novel candidates for broad-spectrum coronavirus antivirals and druggable host targets” (Antimicrobial Agents and Chemotherapy, 2024)
Structures can show the parent of a compound that is named as a salt. Where two headings read alike, the source gives them in different places.

How the values were obtained:
[1] = test system: SARS-CoV-2; conditions: Calu-3 cells
[2] = test system: Huh-7.5/F-Luc cells; conditions: maximum tested dose 5 µM
[3] = test system: HCoV-229E; test: microbe, parasite or virus in culture; assay type: cell-based, Homo sapiens sapiens; conditions: Human coronavirus 229E
[4] = in vitro
[5] = in vitro; conditions: human
[6] = Huh7.5, read-out: IC50 (µM), HCoV 229E
[7] = Anti-SARS-CoV-2 screening on Calu-3 cells: viability [% of control], Calu-3 cells

| SMILES | Anti-SARS-CoV-2 screening on Calu-3 cells: intracellular SARS-CoV-2 infection measured via immunofluorescence imaging [% of control] [1] | CC50 (µM) ([2]; Huh-7.5/F-Luc cells) | IC50 [3, 6] [µM] | viability at 5 µM [5] [%] | viability [4, 7] [%] | CC50 (µM) ([2]; Huh-7.5 cells, dose series) | IC50 ([3]; Huh7.5) [µM] | further results |
| --- | --- | --- | --- | --- | --- | --- | --- | --- |
| CN1C[C@H](CNC(=O)OCc2ccccc2)C[C@@H]2c3cccc4c3c(cn4C)C[C@H]21 [RFM-005-941-6] | 125.57 % of control | greater than maximum tested dose | 1.26 | 163 |  |  |  | viability at 48 h, 5 µM [4]: 117% |
| CN[C@@H](CC(C)C)C(=O)NCCCC(c1ccc(F)cc1)c1ccc(F)cc1 [RFM-010-013-0] | 111.66 % of control | greater than maximum tested dose | 2.77 | 136 | 99.2 |  |  |  |
| CCCCc1oc2ccc(C(=O)OC(C)C)cc2c1C(=O)c1ccc(CCCN(CCCC)CCCC)cc1 [RFM-009-487-1] | 97.65 % of control | greater than maximum tested dose | 1.23 | 122 | 87.8 |  |  |  |
| CCCN(CCC)C(=O)C(Cc1ccc(OCCCN2CCN(C)CC2)cc1)NC(=O)c1ccc(Cl)cc1 (stereo not drawn) [RFM-009-534-1] | 104.27 % of control | greater than maximum tested dose | 3.36 | 135 | 103 |  |  |  |
| CNc1cc(OC)c(C(=O)N[C@@H]2CCN(Cc3ccccc3)[C@@H]2C)cc1Cl [RFM-000-360-1] | 103.45 % of control | greater than maximum tested dose | 2.36 | 134 |  |  |  | viability [4]: 109% |
| OCCN1CCN(CCCC2c3ccc(F)cc3Sc3ccc(C(F)(F)F)cc32)CC1 (stereo not drawn) [RFM-010-066-3] | 109.58 % of control | greater than maximum tested dose | 2.98 | 148 | 86.5 |  |  |  |
| CCCCCCOC(=O)NC(=N)c1ccc(NCc2nc3cc(C(=O)N(CCC(=O)OCC)c4ccccn4)ccc3n2C)cc1 [RFM-002-982-3] | 100.41 % of control | greater than maximum tested dose | 3.13 | 126 | 106 |  |  |  |
| CCN1[C@@H]2CC[C@H]1C[C@@H](OC(c1ccccc1)c1ccccc1)C2 [RFM-011-925-5] | 108.20 % of control | greater than maximum tested dose | 1.62 | 136 | 117 |  |  |  |
| O=c1[nH]c2cc(Cl)ccc2n1C1CCN(CCCC(c2ccc(F)cc2)c2ccc(F)cc2)CC1 [RFM-008-181-2] | 97.91 % of control | greater than maximum tested dose | 1.84 | 121 | 107 |  |  |  |
| CCCN(CCC)C(=O)C(Cc1ccc(OCCCN2CCN(C)CC2)cc1)NC(=O)c1ccc(Br)cc1 (stereo not drawn) [RFM-012-167-5] | 114.35 % of control | greater than maximum tested dose | 2.36 | 141 | 99.3 |  |  |  |
| COCC(=O)O[C@]1(CCN(C)CCCc2nc3ccccc3[nH]2)CCc2cc(F)ccc2[C@@H]1C(C)C [mibefradil dihydrochloride] | 108.00 % of control |  |  |  | 98.3 | greater than maximum tested dose | 1.03 |  |
| CNC1CC(c2ccc(Cl)c(Cl)c2)c2ccccc21 (stereo not drawn) [Indatraline] | 97.64 % of control |  |  |  | 88.1 | greater than maximum tested dose |  | IC50 ([3]; Huh7.5, read-out: IC50): 0.83 µM |
| Cc1nc2c(N3CCNCC3)cccc2n1S(=O)(=O)c1ccccc1 [PF-5212377] | 99.72 % of control |  |  |  | 104 | greater than maximum tested dose | 1.15 |  |
| CN1CCC(c2cn(C)c3ccc(OS(=O)(=O)c4c(F)cccc4F)cc23)CC1 [LY-483518] | 109.16 % of control |  |  |  |  | greater than maximum tested dose | 1.03 | viability at 48 h, 5 µM [4]: 111% |
| Cc1c(-c2ccc(O)cc2)n(Cc2ccc(OCCN3CCCCCC3)cc2)c2ccc(O)cc12 [RFM-002-868-2] | 103.07 % of control | greater than maximum tested dose |  | 165 |  |  |  | viability at 48 h, 5 µM [4, 7]: 96.9% |
| CCOc1cc2c(c(F)c1OCC)C(=N)N(CC(=O)c1cc(N3CCOCC3)c(OC)c(C(C)(C)C)c1)C2 [atopaxar] | 107.54 % of control |  |  |  | 81.4 | greater than maximum tested dose | 0.49 |  |
| Oc1ccc2c(c1)CC[C@H](c1ccccc1)[C@@H]2c1ccc(OCCN2CCCC2)cc1 [Lasofoxifene] | 119.41 % of control |  |  |  | 92.8 | greater than maximum tested dose | 0.75 |  |
| CCNCc1cc(Nc2ccnc3cc(Cl)ccc23)ccc1O [CBR-001-843-604-9] |  | greater than maximum tested dose | 1.43 | 131 |  |  |  |  |
| CNCc1ccc(OC)c([C@@]2(N3CCC[C@H]3c3ncco3)C(=O)N(S(=O)(=O)c3ccc(OC)cc3)c3ccc(Cl)cc32)c1 [RFM-011-199-9] | 113.08 % of control |  |  |  | 95.4 | greater than maximum tested dose | 0.8 |  |
| COc1cccc2c1C(=O)c1c(O)c3c(c(O)c1C2=O)C[C@@](O)(C(=O)CO)C[C@@H]3O[C@H]1C[C@H](N2CCO[C@H](OC)C2)[C@H](O)[C@H](C)O1 [NEMORUBICIN] | 46.15 % of control |  |  |  |  | greater than maximum tested dose |  | IC50 ([3]; Huh7.5, read-out: IC50): 0.17 µM; viability [4]: 16.5% |
| CC(C)Oc1ccc(-c2nc(-c3cccc4c3CC[C@@H]4NCCO)no2)cc1C#N [CBR-001-211-015-5] |  | greater than maximum tested dose | 1.17 | 129 |  |  |  |  |
| OCCN1CCN(CCCN2c3ccccc3Sc3ccc(C(F)(F)F)cc32)CC1 [RFM-001-668-2] | 116.92 % of control | greater than maximum tested dose |  | 154 | 99 |  |  |  |
| CN(C)c1ccc(C(=C2C=CC(=[N+](C)C)C=C2)c2ccc(N(C)C)cc2)cc1 [Gentian violet, reference compound] | 6.34 % of control |  |  |  |  | greater than maximum tested dose | 0.12 | total cell numbers ([1]; 5 µM, DAPI, relative to DMSO): ≥ 75%; reduction of infected cell numbers ([1]; 5 µM, N protein immunofluorescence, relative to DMSO): more than 50%; viability at 48 h, 5 µM [4]: 101% |
| CO[C@@H]1[C@H](O)C[C@@H](O[C@@H]2C[C@H](Oc3cc4cc5c(c(O)c4c(O)c3C)C(=O)[C@@H](O[C@H]3C[C@@H](O[C@H]4C[C@@H](O[C@H]6C[C@](C)(O)[C@@H](OC(C)=O)[C@H](C)O6)[C@H](O)[C@@H](C)O4)[C@H](O)[C@@H](C)O3)[C@H]([C@H](OC)C(=O)[C@@H](O)[C@@H](C)O)C5)O[C@H](C)[C@@H]2OC(C)=O)O[C@@H]1C [CHROMOMYCIN A3] | 60.39 % of control |  |  |  | 61.3 | greater than maximum tested dose |  | IC50 ([3]; Huh7.5, read-out: IC50): 0.16 µM |
| C1CCC(C(CC2CCCCN2)C2CCCCC2)CC1 (stereo not drawn) [PERHEXILINE] | 116.50 % of control |  |  |  |  | greater than maximum tested dose | 0.67 | viability at 48 h, 5 µM [4]: 97% |
| CS[C@H]1SC[C@H]2C(=O)N(C)[C@@H](C(C)C)C(=O)OC[C@@H](NC(=O)c3cnc4ccccc4n3)C(=O)N[C@@H](C)C(=O)N(C)[C@@H]1C(=O)N(C)[C@@H](C(C)C)C(=O)OC[C@@H](NC(=O)c1cnc3ccccc3n1)C(=O)N[C@@H](C)C(=O)N2C [Echinomycin] | 92.25 % of control |  |  |  |  | greater than maximum tested dose |  | IC50 ([3]; Huh7.5, read-out: IC50): 0.1 µM; viability [4]: 95.2% |
| O=C1NCCN1CCN1CCC(c2cn(-c3ccc(F)cc3)c3ccc(Cl)cc23)CC1 [sertindole] | 107.90 % of control |  |  |  |  | greater than maximum tested dose | 0.96 | viability at 48 h, 5 µM [4]: 106% |
| CC(C)(C)NCc1ccc(Nc2ccnc3cc(Cl)ccc23)cc1O [N-tert-Butylisoquine] | 111.10 % of control |  |  |  | 106 | greater than maximum tested dose | 0.54 |  |
| COc1ccc2c(c1)CCC(c1ccccc1)=C2c1ccc(OCCN2CCCC2)cc1 [nafoxidine] | 104.91 % of control |  |  |  |  | greater than maximum tested dose | 0.37 | viability at 48 h, 5 µM [4]: 110% |
